ChEMBL document CHEMBL2331362, “Identification of N-acyl 4-(5-pyrimidine-2,4-dionyl)phenylalanine derivatives and their orally active prodrug esters as dual-acting alpha4-beta1 and alpha4-beta7 receptor antagonists” (Bioorg Med Chem Lett, 2013)

Legend:
[1] = Apparent permeability across human Caco2 cells; assay type: ADME, cell-based; conditions: Caco-2
[2] = target: Integrin alpha-4/beta-7 (Homo sapiens) (UniProt P13612+P26010); experiment: Inhibition of human MAdCAM1 binding to integrin alpha4beta7 receptor in human RPMI 8866 cells labeled with Calcein AM relative to (S)-2-(2-chloro-6-methylbenzamido)-3-(4-(2,6-dichlorobenzamido)phenyl)propanoic acid; assay type: cell-based
[3] = target: T1, Integrin alpha-4/beta-1 (Homo sapiens, UniProt P05556+P13612); experiment: Inhibition of human VCAM1 binding to integrin alpha4beta1 receptor in human Ramos cells labeled with Calcein AM relative to (S)-2-(2-chloro-6-methylbenzamido)-3-(4-(2,6-dichlorobenzamido)phenyl)propanoic acid; assay type: cell-based
T1 sequence (P05556 whole entry, one chain of several): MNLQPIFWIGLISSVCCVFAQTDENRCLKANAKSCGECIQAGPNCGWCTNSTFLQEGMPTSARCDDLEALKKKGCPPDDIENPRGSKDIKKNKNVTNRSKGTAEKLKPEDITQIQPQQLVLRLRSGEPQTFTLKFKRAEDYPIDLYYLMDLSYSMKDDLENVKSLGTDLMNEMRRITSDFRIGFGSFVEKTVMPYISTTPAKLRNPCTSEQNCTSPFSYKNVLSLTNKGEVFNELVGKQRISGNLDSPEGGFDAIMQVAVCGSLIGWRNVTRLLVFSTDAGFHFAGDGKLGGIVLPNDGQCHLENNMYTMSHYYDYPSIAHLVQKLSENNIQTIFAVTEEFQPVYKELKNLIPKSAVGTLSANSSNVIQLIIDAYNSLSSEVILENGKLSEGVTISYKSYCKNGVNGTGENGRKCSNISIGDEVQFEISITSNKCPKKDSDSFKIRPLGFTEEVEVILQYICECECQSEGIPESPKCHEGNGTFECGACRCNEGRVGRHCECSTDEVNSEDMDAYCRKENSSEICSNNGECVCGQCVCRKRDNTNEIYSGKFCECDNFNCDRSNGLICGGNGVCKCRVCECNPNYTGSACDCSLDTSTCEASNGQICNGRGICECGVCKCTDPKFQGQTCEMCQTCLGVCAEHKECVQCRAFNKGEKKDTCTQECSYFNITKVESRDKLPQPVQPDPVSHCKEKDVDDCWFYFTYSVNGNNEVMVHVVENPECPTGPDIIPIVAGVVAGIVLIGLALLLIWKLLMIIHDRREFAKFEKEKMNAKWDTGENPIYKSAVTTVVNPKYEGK

[4] = target: T2, Integrin alpha-4/beta-7 (Homo sapiens, UniProt P13612+P26010); experiment: Inhibition of human MAdCAM1 binding to integrin alpha4beta7 receptor in human RPMI 8866 cells labeled with Calcein AM; assay type: cell-based
T2 sequence (P13612 whole entry): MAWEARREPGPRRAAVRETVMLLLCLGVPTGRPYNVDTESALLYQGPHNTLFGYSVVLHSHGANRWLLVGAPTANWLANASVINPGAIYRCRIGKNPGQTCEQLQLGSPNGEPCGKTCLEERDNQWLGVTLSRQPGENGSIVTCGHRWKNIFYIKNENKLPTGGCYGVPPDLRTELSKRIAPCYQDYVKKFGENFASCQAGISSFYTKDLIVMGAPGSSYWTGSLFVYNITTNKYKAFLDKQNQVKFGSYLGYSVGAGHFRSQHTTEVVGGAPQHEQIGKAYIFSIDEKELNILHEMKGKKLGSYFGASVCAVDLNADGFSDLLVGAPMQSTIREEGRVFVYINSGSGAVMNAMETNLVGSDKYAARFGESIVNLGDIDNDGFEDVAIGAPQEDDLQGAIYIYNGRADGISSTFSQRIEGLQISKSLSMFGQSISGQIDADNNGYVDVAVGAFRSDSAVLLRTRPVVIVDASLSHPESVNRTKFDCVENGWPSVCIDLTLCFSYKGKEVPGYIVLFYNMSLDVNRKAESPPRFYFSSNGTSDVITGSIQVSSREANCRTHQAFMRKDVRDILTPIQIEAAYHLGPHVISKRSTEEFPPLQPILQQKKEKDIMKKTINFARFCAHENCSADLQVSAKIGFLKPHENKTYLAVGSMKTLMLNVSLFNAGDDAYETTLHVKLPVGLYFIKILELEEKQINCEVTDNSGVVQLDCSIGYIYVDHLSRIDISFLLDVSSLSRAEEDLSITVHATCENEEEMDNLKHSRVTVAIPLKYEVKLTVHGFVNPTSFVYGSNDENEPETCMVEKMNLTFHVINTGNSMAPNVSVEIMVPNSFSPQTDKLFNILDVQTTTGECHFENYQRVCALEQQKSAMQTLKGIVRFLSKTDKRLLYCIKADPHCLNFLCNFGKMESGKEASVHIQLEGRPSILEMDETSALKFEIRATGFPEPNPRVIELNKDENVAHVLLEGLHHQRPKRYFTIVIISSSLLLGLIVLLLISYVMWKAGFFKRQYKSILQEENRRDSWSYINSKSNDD
T2 sequence (P26010 whole entry): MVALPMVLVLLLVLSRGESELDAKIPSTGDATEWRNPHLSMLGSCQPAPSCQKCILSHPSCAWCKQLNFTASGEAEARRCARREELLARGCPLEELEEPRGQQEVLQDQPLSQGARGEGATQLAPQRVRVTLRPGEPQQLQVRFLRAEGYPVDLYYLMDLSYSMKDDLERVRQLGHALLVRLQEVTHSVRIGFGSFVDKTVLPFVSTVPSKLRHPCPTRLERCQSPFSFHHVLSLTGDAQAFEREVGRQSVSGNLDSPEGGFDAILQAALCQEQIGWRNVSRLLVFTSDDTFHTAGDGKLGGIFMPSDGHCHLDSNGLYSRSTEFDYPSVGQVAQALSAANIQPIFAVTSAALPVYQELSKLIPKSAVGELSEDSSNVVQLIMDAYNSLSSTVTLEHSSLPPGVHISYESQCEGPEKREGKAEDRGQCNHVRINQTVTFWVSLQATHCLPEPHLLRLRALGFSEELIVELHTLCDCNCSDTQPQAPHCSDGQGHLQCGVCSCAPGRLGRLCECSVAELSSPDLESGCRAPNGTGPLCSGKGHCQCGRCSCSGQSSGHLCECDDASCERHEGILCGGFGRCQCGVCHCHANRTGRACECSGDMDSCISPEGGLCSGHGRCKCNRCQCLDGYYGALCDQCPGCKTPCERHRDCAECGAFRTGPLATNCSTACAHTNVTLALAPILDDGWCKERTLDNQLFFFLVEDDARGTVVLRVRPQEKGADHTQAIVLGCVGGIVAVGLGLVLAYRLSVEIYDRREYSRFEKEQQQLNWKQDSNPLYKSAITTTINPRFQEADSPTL

[5] = target: T1, Integrin alpha-4/beta-1; experiment: Inhibition of human VCAM1 binding to integrin alpha4beta1 receptor in human Ramos cells labeled with Calcein AM; assay type: cell-based
[6] = Oral bioavailability in rat; assay type: ADME, organism-based; conditions: in vivo
[7] = Distribution coefficient, log D of the compound; assay type: physicochemical; conditions: octanol/water

| SMILES | Papp [1] [×10⁻⁶ cm/s] | Ratio IC50 [2] | Ratio IC50 [3] | IC50 [4] [nM] | IC50 [5] [nM] | bioavailability [6] [%] | logD [7] |
| --- | --- | --- | --- | --- | --- | --- | --- |
| Cc1cc(C[C@H](NC(=O)c2c(C)cccc2Cl)C(=O)O)ccc1-c1cn(C)c(=O)n(C)c1=O |  |  | 1 |  | 81 |  |  |
| CCn1c(C)c(-c2ccc(C[C@H](NC(=O)C3(CCOC)CCCC3)C(=O)O)cc2)c(=O)n(CC)c1=O |  | 0.46 | 0.29 | 565 | 382 |  |  |
| COCCC1(C(=O)N[C@@H](Cc2ccc(-c3c(C)n(C)c(=O)n(C)c3=O)cc2)C(=O)O)CCCC1 |  | 1 | 0.49 | 324 | 287 |  |  |
| COCCC1(C(=O)N[C@@H](Cc2ccc(-c3cn(C)c(=O)n(C)c3=O)c(C)c2)C(=O)O)CCCC1 |  |  | 0.8 |  | 64 |  |  |
| Cc1cc(C[C@H](NC(=O)c2c(Cl)cccc2Cl)C(=O)O)ccc1-c1c(C)n(C)c(=O)n(C)c1=O |  | 3.6 | 1.1 | 168 | 10 |  |  |
| Cc1cc(C[C@H](NC(=O)c2c(Cl)cccc2Cl)C(=O)O)ccc1-c1cn(C)c(=O)n(C)c1=O |  | 1.9 | 0.68 | 220 | 56 |  |  |
| Cn1c(C(F)(F)F)c(-c2ccc(C[C@H](NC(=O)c3c(Cl)cccc3Cl)C(=O)O)cc2)c(=O)n(C)c1=O |  | 1.3 | 0.46 | 219 | 196 |  |  |
| CCn1c(C)c(-c2ccc(C[C@H](NC(=O)c3c(Cl)cccc3Cl)C(=O)O)cc2)c(=O)n(CC)c1=O |  | 4.8 | 0.8 | 124 | 63 |  |  |
| Cc1cc(C[C@H](NC(=O)c2c(C)cccc2Br)C(=O)O)ccc1-c1cn(C)c(=O)n(C)c1=O |  |  | 2 |  | 25 |  |  |
| CC(=O)OC(C)OC(=O)[C@H](Cc1ccc(-c2c(C)n(C)c(=O)n(C)c2=O)cc1)NC(=O)c1c(F)cccc1F (some centres undefined) | 12 |  |  |  |  | 30 | 1.61 |
| Cc1cc(C[C@H](NC(=O)c2c(C)cccc2Cl)C(=O)O)ccc1-c1c(C)n(C)c(=O)n(C)c1=O |  | 1 | 0.14 | 254 | 246 |  |  |
| COc1cccc(Br)c1C(=O)N[C@@H](Cc1ccc(-c2cn(C)c(=O)n(C)c2=O)c(C)c1)C(=O)O |  |  | 0.35 |  | 255 |  |  |
| CCn1c(C)c(-c2ccc(C[C@H](NC(=O)c3c(C)cccc3Cl)C(=O)O)cc2)c(=O)n(CC)c1=O |  | 1.7 | 0.37 | 164 | 296 |  |  |

The remaining lines, values ahead:

| Papp [1] [×10⁻⁶ cm/s] | Ratio IC50 [2] | Ratio IC50 [3] | IC50 [4] [nM] | IC50 [5] [nM] | bioavailability [6] [%] | logD [7] | SMILES |
| --- | --- | --- | --- | --- | --- | --- | --- |
| 2.9 | 6.1 | 2.1 | 58 | 35 | 10 | -1.76 | Cc1cccc(Cl)c1C(=O)N[C@@H](Cc1ccc(-c2c(C)n(C)c(=O)n(C)c2=O)cc1)C(=O)O |
| 34.7 |  |  |  |  | 25 | 2.24 | CCOC(=O)[C@H](Cc1ccc(-c2c(C)n(C)c(=O)n(C)c2=O)cc1)NC(=O)c1c(C)cccc1Cl |
|  | 0.15 | 0.04 | 1970 | 1450 |  |  | Cc1c(-c2ccc(C[C@H](NC(=O)c3c(C(C)C)cccc3C(C)C)C(=O)O)cc2)c(=O)n(C)c(=O)n1C |
|  | 2.4 | 0.1 | 167 | 123 |  |  | Cc1cccc(Cl)c1C(=O)N[C@@H](Cc1ccc(-c2c(C(F)(F)F)n(C)c(=O)n(C)c2=O)cc1)C(=O)O |
|  | 2.3 | 0.53 | 151 | 87 |  |  | CCc1cccc(Cl)c1C(=O)N[C@@H](Cc1ccc(-c2c(C)n(C)c(=O)n(C)c2=O)cc1)C(=O)O |
| 1.33 | 16 | 6.3 | 35 | 8 | 1.7 | -2.02 | Cc1c(-c2ccc(C[C@H](NC(=O)c3c(Cl)cccc3Cl)C(=O)O)cc2)c(=O)n(C)c(=O)n1C |
|  | 1 | 0.13 | 558 | 215 |  |  | Cc1c(-c2ccc(C[C@H](NC(=O)c3c(Cl)cccc3C(C)C)C(=O)O)cc2)c(=O)n(C)c(=O)n1C |
| 18.3 |  |  |  |  | 6 | 2.01 | CCOC(=O)[C@H](Cc1ccc(-c2c(C)n(C)c(=O)n(C)c2=O)cc1)NC(=O)c1c(Cl)cccc1Cl |
